Experimental data as given in patent US4044043A, “Derivatives of 9-oxo-13-trans-prostenoic acid esters” (American Cyanamid Company, priority 1975, dated 1977).
Converted amounts (≈) assume the structure as drawn. Read-outs that look alike come from different tables or passages of the source.

What was measured:
[1] = system: Mycobacterium smegmatis ATCC 606; assay: agar-dilution streak-plate antimicrobial assay; assay type: cell-based; conditions: Mycolicibacterium smegmatis, ATCC606, read-out: Minimal inhibitory conc. (6)
Procedure: (§1) The novel compounds of the present invention are also useful as antimicrobial agents. […] In this assay, the compounds to be tested are made up to contain 2.5 mg. of test compound per milliliter of solution. Observing sterile techniques, two-fold serial dilution are made of each test solution. One milliliter of each of the original solutions and of each of the serial dilutions is then added to 9 ml. of warm sterile nutrient agar capable of supporting growth of the bacterial test cultures. A second set of agar dilutions is prepared identical to the first except that the nutrient agar is designed to support the growth of the fungal test cultures. […] The test bacteria and yeast-like fungi are prepared for use by growing in broth overnight. The spores of the filamentous fungi are harvested from mature agar slant cultures and are suspended in sterile physiological saline solution. A loopful of each of the resulting live suspensions is then, still employing sterile techniques, streaked upon the surfaces of each of the agar plates and the resulting streaked plates are then incubated. After an appropriate period of time, each of the streaks on each of the plates is inspected visually and the extent, if any, of bacterial or fungal growth is noted. The minimal inhibitory concentration (expressed in micrograms per milliliter) is defined as the concentration of test compound causing complete inhibition of growth of any particular organism. In a representative operation, and merely by way of illustration, the minimal inhibitory concentration of typical compounds of the present invention against a variety of test organisms as determined in the above-described assay are set forth in Tables II and III below: […]

[2] = system: Trichophyton tonsurans NIH 662; assay: agar-dilution streak-plate antimicrobial assay; assay type: cell-based; conditions: NIH662, read-out: Minimal inhibitory conc. (3)
Procedure: as §1

diastolic blood pressure = assay: Prostaglandin-like hypotensive activity in anesthetized rats (minimal dose for about 10 mm. decrease in diastolic blood pressure); assay type: in vivo, Male Wistar strain rats; conditions: Rattus norvegicus; intravenous; decrease of about 10 mm. in diastolic blood pressure
Procedure: This procedure is a modification of the technique described by Pike et al., Prostaglandins, Nobel Symposium 2, Stockholm, June, 1966; p, 165.
Male Wistar strain rats (Royal Hart Farms) averaging approximately 250 grams in weight were fastened to rat boards in a supine position by means of canvas vests and limb ties. The femoral area was infiltrated subcutaneously with lidocaine and the iliac artery and vein exposed and cannulated. Arterial blood pressure (systolic/diastolic) was recorded using a Statham P23 Db pressure transducer-Offner dynograph system. To obtain a stable blood pressure, the animals were anesthetized before use with pentobarbital, 30 mg./kg. of body weight intravenously, and also were given hexamethonium bitartrate, 2 mg./kg. of body weight intravenously. The test compounds were prepared by ultrasonic dispersion in a saline-Tween 80 ® vehicle. A constant intravenous dose volume of 0.5 ml. was administered and test doses ranged from 0.1 to 10.0 mg./kg. of body weight. Increasing or decreasing doses were selected depending on the dose response obtained. In Table I below are set forth the minimal doses required to produce a decrease of about 10 mm. in diastolic blood pressure for typical compounds of the present invention.

[3] = system: bronchospasms elicited by histamine; assay: Bronchodilator Activity (Konzett Assay) against histamine; assay type: in vivo, guinea pigs; conditions: Cavia porcellus; three logarithmic cumulative intravenous doses
Procedure: (§2) Bronchodilator activity was determined in guinea pigs against bronchospasms elicited by intravenous injections of 5-hydroxytryptamine, histamine or acetylcholine by the Konzett procedure. [See J. Lulling, P. Lievens, F. El Sayed and J. Prignot, Arzeneimittel-Forschung, 18, 995 (1968)]. In Table IIIC which follows bronchodilator activity for representative compounds of this invention against one or more of the three spasmogenic agents is expressed as an ED50 determined from the results obtained with three logarithmic cumulative intravenous doses.

[4] = system: bronchospasms elicited by acetylcholine; assay: Bronchodilator Activity (Konzett Assay) against acetylcholine; assay type: in vivo, guinea pigs; conditions: Cavia porcellus; three logarithmic cumulative intravenous doses
Procedure: as §2

[5] = system: bronchospasms elicited by 5-hydroxytryptamine; assay: Bronchodilator Activity (Konzett Assay) against 5-hydroxytryptamine; assay type: in vivo, guinea pigs; conditions: Cavia porcellus; three logarithmic cumulative intravenous doses
Procedure: as §2

gastric acid secretion [6] = assay: Inhibition of Gastric Acid Secretion (Pylorous-Ligated Rat), Shay rat procedure; assay type: in vivo, rats (male, CFE strain); conditions: read-out: % Inhibition of Control Gastric Acid Secretion; for inhibition in vivo at 100 mg/kg: 100 mg./kg. intraduodenal
From the text: The novel compounds of the present invention are also effective inhibitors of gastric acid secretion and of ulcer development in experimental animals, and thus are potentially valuable as agents for the control of gastric acid secretion and of gastric erosion and as anti-ulcer agents. Gastric acid secretion inhibitory action is usually measured by the Shay rat procedure ^(1,2) with some modifications as follows. 6 1. Shay et al., Gastroenterology, 5, 43 (1945). 6 2. Shay et al., Gastroenterology, 26, 906 (1954).
The rats (male, CFE strain) were starved for 48 hours (water was given ad libitum) to permit evacuation of stomach contents. On the morning of the experiment, under ether anesthesia, the abdominal region was shaved and a midline incision (1-1 1/2 inch) was made with a scalpel. With the help of a closed curved hemostat the duodenum was picked up. Upon getting the duodenum into view fingers were used to pull the stomach through the opening, the stomach was then gently manipulated with fingers to rid stomach of air and residual matter which were pushed through the pylorus. Two 5-inch sutures were drawn under the pyloric-duodenal puncture. A ligature, at the juncture, was formed with one of the threads. The second ligature was also formed but not tightened.
The test compound or the vehicle, usually 1 ml./100 g. body weight, were injected into the duodenum as close as possible to the first ligature. After injection the second ligature was tightened below the injection site to minimize leakage. The stomach was placed back through the opening into the abdominal cavity, the area of incision was washed with saline and the incision was closed with autoclips. (Ocasionally instead of an intraduodenal injection, animals were dosed by the oral or subcutaneous route. In the latter case, dosing was done thirty to sixty minutes before the operation).
The abdominal cavity was exposed by cutting with scissors and the esophagus close to the stomach was clamped off with a hemostat, the stomach was removed by cutting above the hemostat (the esophagus was cut) and between the two sutures. Extraneous tissue was removed, the stomach washed with saline and blotted on gauze. A slit was carefully made in the stomach which was held over a funnel and the contents were collected in a centrifuge tube. The stomach was further cut along the outside edge and turned inside out. Two ml. of water were used to wash the stomach contents into the respective centrifuge tube. The combined stomach contents and wash were then centrifuged out for 10 minutes in the International Size 2 Centrifuge (setting at 30). The supernatant was collected, volume measured and recorded, 2 drops of phenolphthalein indicator (1% in 95% ethanol) were added and the solution was titrated with 0.02N NaOH (or with 0.04N NaOH when large volumes of stomach contents were encountered) to pH 8.4 (because of usual coloring of the stomach contents, phenolphthalein was only used to permit visual indication that the end point was near) and the amount of acid present was calculated.
Compounds inducing inhibition of gastric acid secretion of 20% or more were considered active. In a representative operation, and merely by way of illustration, the results obtained with this assay with typical compounds of the present invention are given in Table IIIA.

[7] = system: dl-PGE1-induced contraction of gerbil colon; assay: Inhibition of dl-PGE1-Induced Contraction of Gerbil Colon (prostaglandin antagonist action); assay type: cell-based, gerbils (Meriones unguiculatus); conditions: Meriones unguiculatus, 1 min
Procedure: The compounds of this invention are also useful as antagonists of prostaglandin action and accordingly they are potentially useful as anti-inflammatory agents, and as agents for the treatment of periodontal diseases and diarrhea. Testing for prostaglandin antagonist action is carried out in the following manner. Sections of ascending colon, approximately 20 mm. long, from mature male gerbils (Meriones unguiculatus) weighing 70-80 g. were mounted in De Jalon's solution (154 mM NaCl; 5.95 mM NAHCO3; […], 5.64 mM KC and .27 mM CaCl2 in 20 ml. tissue baths) (L and K Glass Co., Lynnhurst, N.J.). The medium was continually gassed with a mixture of 95% 02 -5% CO2 and maintained at 37° C. The tissues were suspended via silk suture threads between a glass hook at the base and a model FT .03C force displacement transducer (Grass Instruments, Quincy, Massachusetts). Contractions were recorded on a Poly-Viso ® polygraph (Sanborn Co., Cambridge, Massachusetts). After mounting, tissues were allowed to stabilize 15-20 minutes during which time adjustments were made to establish and maintain a 0.5 g. resting tension on the muscle. Thereafter, test cycles of 3-5 minutes were begun and consisted of a 1 minute exposure to the potential antagonist, if called for, followed by a 1 minute exposure to the prostaglandin agonist, a 15-30 sec. washout and a recovery period of 2-2.5 minutes. […] During the washout period, the tissue was rinsed with a measured amount equalling 8 volumes of medium. Muscle relaxation was virtually complete by the end of the washout period. During preliminary tests it was noted that a final concentration of 200 ng./ml. of a racemic mixture of synthetic prostaglandin-E1 (dl-PGE1) produced maximal muscle contraction. Following stabilization, muscles were exposed 2 to 3 times to this concentration of dl-PGE1 until a consistent response was recorded. Once maximal responses were established, test cycles with potential antagonists were commenced and were followed alternately with prostaglandin-only test cycle. […] The contraction of the muscle induced by 200 ng./ml. dl-PGE1 following exposure to a given concentration of the potential antagonist was always compared to the response of the tissue to that level of dl PGE1 in the immediately preceding cycle. Using a series of potential antagonist concentrations, an approximate ID50 (concentration at which 50% inhibition was observed) was established. The compounds were also tested against a sub-maximal prostaglandin challenge (20 ng./ml. dl-PGE1) in which case activity is reported in terms of a 50% inhibition of maximum response.

gastric acid secretion [8] = assay: Inhibition of basal Gastric Acid Secretion (Acute Gastric Fistula Rat); assay type: in vivo, Female Sprague-Dawley rats; conditions: 2 h, 10 mg./kg. intraduodenal, B: 120 minute collection
Procedure: Inhibition of basal gastric acid secretion was determined in the acute gastric fistula rat as follows. Female Sprague-Dawley rats (Charles River Laboratories) weighing 140-160 grams are fasted in individual cages for 18-24 hours. The rats are then lightly anesthetized with ether and their front teeth extracted to avoid destruction of the plastic cannula. A midline incision is then made and the stomach and duodenum exposed. A flanged polyvinyl tube is inserted into the fundic portion of the stomach and secured with a purse string suture line using 4-0 Mersilene. The rat is then dosed by injection of the compound into the duodenum (1.0 ml. per 100 gram body weight). After dosing, the abdominal wall and skin are closed using metal wound clips. The rat is replaced in a cage containing a longitudinal slit to allow the polyvinyl tube to hang freely. An 8 ml. plastic collecting tube is attached to the flanged cannula and hangs freely below the cage. The first 30 minute sample is discarded designating this time as zero. The collecting tube is attached again and samples removed at the end of 60 and 120 minutes. Those samples are referred to as "A" and "B" in the table. The hourly samples are then transferred to a 15 ml. centrifuge tube and centrifuged for 5-10 minutes. Total and sediment volume are then recorded with the supernatant volume being used as volume of secretion. A 1 ml. or less aliquot is then removed and placed in a 50 ml. beaker containing 10 ml. of distilled water. This sample is then titrated using 0.01N NaOH to pH 7.0 using a Beckman zeromatic pH meter. Volume, titratable acidity (meq/L) and total acid output (μ eq/hour) are recorded. Percent inhibition is determined by comparison with the appropriate control. Groups of three rats were used. All compounds are administered in vehicle (0.5% methocel, 0.4% Tween 80, saline) at a constant volume of 1 ml./100 gram rat. Samples were sonicated with care to prevent overheating.

[9] = sub-maximal challenge, 20 ng./ml. dl-PGE1, 50% inhibition of maximum response, read-out: ID50 vs. 20 ng. of PGE1/ml.
[10] = read-out: % Inhibition Total Acid Output
[11] = read-out: % Inhibition Total Acidity
[12] = 200 ng./ml. dl-PGE1, read-out: ID50 vs. 200 ng. of PGE1/ml.

IC50 [7, 9] [mg/L] | IC50 [7, 12] [mg/L] | Structure (SMILES) | ED50 [3] [mg/kg] | ED50 [4] [mg/kg] | ED50 [5] [mg/kg] | inhibition in vivo at 100 mg/kg (gastric acid secretion [6]) [%] | also measured
 |  | CCCCCCCCCC/C=C/[C@H]1CCC(=O)[C@@H]1CCCCCCC(=O)OCC (relative stereo) [ethyl 20-butyl-9-oxo-13-trans-prostenoate] |  |  |  |  | MIC [1]: 250 mg/L (≈ 615 µM); MIC [2]: 250 mg/L (≈ 615 µM); minimal effective dose (diastolic blood pressure): 10 mg/kg
1 to 2 (≈ 3.4 to 6.79 µM) |  | CCCC/C=C/[C@H]1CCC(=O)[C@@H]1CCCCCCC(=O)O (relative stereo) [9-oxo-19,20-dinor-13-trans-prostenoic acid] | 0.715 | 5.28 | 2.16 | 77 | inhibition in vivo at 50 mg/kg (gastric acid secretion [6]; 50 mg./kg. intraduodenal): 37%
 |  | CCCCCC/C=C/[C@@H]1CCC(=O)[C@H]1CCCCC(C)(C)CC(=O)OCC (relative stereo) [ethyl 9-oxo-3,3-dimethyl-13-trans-prostenoate] |  |  |  |  | inhibition in vivo at 10 mg/kg (gastric acid secretion [8]; [10]): 59%; inhibition in vivo at 10 mg/kg (gastric acid secretion [8]; [11]): 18%
 | 20 (≈ 61.6 µM) | CCCCCC/C=C/[C@@H]1CCC(=O)[C@H]1CCCCOCC(=O)O (relative stereo) [9-oxo-3-oxa-13-trans-prostenoic acid] | 0.67 | 5.24 | 0.895 | 90 | 
 |  | CCCCCC/C=C/[C@H]1CCC(=NOC)[C@@H]1CCCCCCC(=O)OCC (relative stereo) [ethyl 9-oxo-13-trans-prostenoate 9-methoxime] |  |  |  |  | inhibition in vivo at 10 mg/kg (gastric acid secretion [8]; [10]): 66%; inhibition in vivo at 10 mg/kg (gastric acid secretion [8]; [11]): 45%
1 to 2 (≈ 2.96 to 5.93 µM) |  | CCCCCC/C=C/[C@@H]1CCC(=NO)[C@H]1CCCCCCC(=O)O (relative stereo) [9-oxo-13-trans-prostenoic acid 9-oxime, 9-Oxo-13-trans-prostenoic acid oxime] | 23.1 | 12.5 | 30 | 39 | 
1 (≈ 2.85 µM) | 3 to 5 (≈ 8.56 to 14.3 µM) | CCCCCC/C=C/[C@@H]1CCC(=O)[C@H]1CCCCC(C)(C)CC(=O)O (relative stereo) [3,3-dimethyl-9-oxo-13-trans-prostenoic acid] | 5.1 | > 10 | 12 |  | inhibition in vivo at 200 mg/kg (gastric acid secretion [6]; 200 mg./kg. intraduodenal): 72%
0.9 (≈ 2.81 µM) | 9 (≈ 28.1 µM) | CCCCCC/C=C/[C@@H]1CCC(=O)[C@H]1C/C=C\CCCC(=O)O (relative stereo) [9-oxo-5-cis,13-trans-prostadienoic acid, 9-oxo-5-cis-13-trans-prostadienoic acid] | 1.42 | 4.36 | 1.5 |  | 
